Converted amounts (≈) assume the structure as drawn.
Tests used:
[1] = tested on: Escherichia coli; assay: Antibacterial activity against Escherichia coli ATCC 25922 after 24 hrs by MTT assay; type: functional; details: ATCC 25922, 24 h
[2] = tested on: Pseudomonas aeruginosa; assay: Antibacterial activity against Pseudomonas aeruginosa ATCC 27853 after 24 hrs by MTT assay; type: functional; details: ATCC 27853, 24 h
[3] = tested on: Staphylococcus aureus; assay: Antibacterial activity against Staphylococcus aureus ATCC 6538 after 24 hrs by MTT assay; type: functional; details: ATCC 6538, 24 h
[4] = tested on: Bacillus subtilis; assay: Antibacterial activity against Bacillus subtilis ATCC 530 after 24 hrs by MTT assay; type: functional; details: ATCC 530, 24 h
[5] = Inhibition of Escherichia coli FabH expressed in Escherichia coli BL21(DE3) using holo-ACP as substrate after 25 mins
[6] = Toxicity in RBC assessed as concentration required for 30% hemolysis; type: cell-based; details: erythrocyte

| SMILES | MIC [1] | MIC [2] | MIC [3] | MIC [4] | IC50 [5] | HC30 [6] |
| --- | --- | --- | --- | --- | --- | --- |
| COc1ccc(C2=NN(c3nc(-c4ccccc4)cs3)C(c3cccs3)C2)cc1 (stereo not given) | 6.25 µg/mL (≈ 15 µM) | 50 µg/mL (≈ 120 µM) | 6.25 µg/mL (≈ 15 µM) | 12.5 µg/mL (≈ 29.9 µM) | 30.6 µM | > 10 mg/mL |
| COc1ccc(C2=NN(C3=NC(=O)CS3)C(c3cccs3)C2)cc1 (stereo not given) | 12.5 µg/mL (≈ 35 µM) | > 50 µg/mL | 12.5 µg/mL (≈ 35 µM) | 50 µg/mL (≈ 140 µM) | 89.9 µM | > 10 mg/mL |
| COc1ccc(C2=NN(c3nc(-c4ccc(OC)cc4)cs3)C(c3cccs3)C2)cc1 (stereo not given) | 12.5 µg/mL (≈ 27.9 µM) | 12.5 µg/mL (≈ 27.9 µM) | 12.5 µg/mL (≈ 27.9 µM) | 50 µg/mL (≈ 112 µM) |  |  |
| O=C1CSC(N2N=C(c3ccc(F)cc3)CC2c2cccs2)=N1 (stereo not given) | 6.25 µg/mL (≈ 18.1 µM) | > 50 µg/mL | 12.5 µg/mL (≈ 36.2 µM) | 12.5 µg/mL (≈ 36.2 µM) |  |  |
| COc1ccc(-c2csc(N3N=C(c4ccc(C)cc4)CC3c3cccs3)n2)cc1 (stereo not given) | 6.25 µg/mL (≈ 14.5 µM) | 12.5 µg/mL (≈ 29 µM) | 12.5 µg/mL (≈ 29 µM) | 6.25 µg/mL (≈ 14.5 µM) |  |  |
| O=C1CSC(N2N=C(c3ccc(Cl)c(Cl)c3)CC2c2cccs2)=N1 (stereo not given) | 12.5 µg/mL (≈ 31.5 µM) | 12.5 µg/mL (≈ 31.5 µM) | 12.5 µg/mL (≈ 31.5 µM) | > 50 µg/mL |  |  |
| Brc1ccc(C2=NN(c3nc(-c4ccccc4)cs3)C(c3ccco3)C2)cc1 (stereo not given) | 3.13 µg/mL (≈ 6.95 µM) | 3.13 µg/mL (≈ 6.95 µM) | 1.56 µg/mL (≈ 3.46 µM) | 3.13 µg/mL (≈ 6.95 µM) | 9.7 µM | > 10 mg/mL |
| Clc1ccc(C2=NN(c3nc(-c4ccccc4)cs3)C(c3cccs3)C2)cc1Cl (stereo not given) | 50 µg/mL (≈ 110 µM) | 12.5 µg/mL (≈ 27.4 µM) | > 50 µg/mL | 12.5 µg/mL (≈ 27.4 µM) | > 150 µM | > 10 mg/mL |
| O=C1CSC(N2N=C(c3ccc(Br)cc3)CC2c2ccco2)=N1 (stereo not given) | 6.25 µg/mL (≈ 16 µM) | 12.5 µg/mL (≈ 32 µM) | 6.25 µg/mL (≈ 16 µM) | 12.5 µg/mL (≈ 32 µM) |  |  |
| Fc1ccc(C2=NN(c3nc(-c4ccccc4)cs3)C(c3ccco3)C2)cc1 (stereo not given) | 6.25 µg/mL (≈ 16 µM) | 12.5 µg/mL (≈ 32.1 µM) | 6.25 µg/mL (≈ 16 µM) | 50 µg/mL (≈ 128 µM) | 22.3 µM | > 10 mg/mL |
| O=C1CSC(N2N=C(c3ccc(F)cc3)CC2c2ccco2)=N1 (stereo not given) | 3.13 µg/mL (≈ 9.5 µM) | 6.25 µg/mL (≈ 19 µM) | 3.13 µg/mL (≈ 9.5 µM) | 3.13 µg/mL (≈ 9.5 µM) | 8.4 µM | > 10 mg/mL |
| COc1ccc(-c2csc(N3N=C(c4ccc(F)cc4)CC3c3cccs3)n2)cc1 (stereo not given) | 12.5 µg/mL (≈ 28.7 µM) | 12.5 µg/mL (≈ 28.7 µM) | 12.5 µg/mL (≈ 28.7 µM) | 12.5 µg/mL (≈ 28.7 µM) |  |  |
| NC[C@H]1O[C@H](O[C@H]2[C@H](O)[C@@H](O[C@H]3O[C@H](CO)[C@@H](O)[C@H](N)[C@H]3O)[C@H](N)C[C@@H]2N)[C@H](N)[C@@H](O)[C@@H]1O [BEKANAMYCIN] | 1.56 µg/mL (≈ 3.23 µM) | 1.56 µg/mL (≈ 3.23 µM) | 3.13 µg/mL (≈ 6.47 µM) | 3.13 µg/mL (≈ 6.47 µM) |  |  |
| Cc1ccc(C2=NN(C3=NC(=O)CS3)C(c3cccs3)C2)cc1 (stereo not given) | 6.25 µg/mL (≈ 18.3 µM) | 6.25 µg/mL (≈ 18.3 µM) | 3.13 µg/mL (≈ 9.17 µM) | 6.25 µg/mL (≈ 18.3 µM) | 13.6 µM | > 10 mg/mL |
| COc1ccc(-c2csc(N3N=C(c4ccc(Cl)c(Cl)c4)CC3c3ccco3)n2)cc1 (stereo not given) | 50 µg/mL (≈ 106 µM) | > 50 µg/mL | 12.5 µg/mL (≈ 26.6 µM) | > 50 µg/mL |  |  |
| Cc1ccc(C2=NN(c3nc(-c4ccccc4)cs3)C(c3ccco3)C2)cc1 (stereo not given) | 1.56 µg/mL (≈ 4.05 µM) | 1.56 µg/mL (≈ 4.05 µM) | 1.56 µg/mL (≈ 4.05 µM) | 3.13 µg/mL (≈ 8.12 µM) | 4.6 µM | > 10 mg/mL |
| COc1ccc(-c2csc(N3N=C(c4ccc(C)cc4)CC3c3ccco3)n2)cc1 (stereo not given) | 3.13 µg/mL (≈ 7.53 µM) | 3.13 µg/mL (≈ 7.53 µM) | 6.25 µg/mL (≈ 15 µM) | 6.25 µg/mL (≈ 15 µM) | 15.7 µM | > 10 mg/mL |
| COc1ccc(-c2csc(N3N=C(c4ccc(Cl)c(Cl)c4)CC3c3cccs3)n2)cc1 (stereo not given) | 50 µg/mL (≈ 103 µM) | 12.5 µg/mL (≈ 25.7 µM) | 50 µg/mL (≈ 103 µM) | 12.5 µg/mL (≈ 25.7 µM) | > 150 µM | > 10 mg/mL |
| Fc1ccc(C2=NN(c3nc(-c4ccccc4)cs3)C(c3cccs3)C2)cc1 (stereo not given) | 12.5 µg/mL (≈ 30.8 µM) | 12.5 µg/mL (≈ 30.8 µM) | 12.5 µg/mL (≈ 30.8 µM) | 50 µg/mL (≈ 123 µM) |  |  |
| Clc1ccc(C2=NN(c3nc(-c4ccccc4)cs3)C(c3ccco3)C2)cc1Cl (stereo not given) | 12.5 µg/mL (≈ 28.4 µM) | > 50 µg/mL | 12.5 µg/mL (≈ 28.4 µM) | 12.5 µg/mL (≈ 28.4 µM) |  |  |
| COc1ccc(-c2csc(N3N=C(c4ccc(F)cc4)CC3c3ccco3)n2)cc1 (stereo not given) | 6.25 µg/mL (≈ 14.9 µM) | 6.25 µg/mL (≈ 14.9 µM) | 12.5 µg/mL (≈ 29.8 µM) | 12.5 µg/mL (≈ 29.8 µM) |  |  |
| Cc1ccc(C2=NN(c3nc(-c4ccccc4)cs3)C(c3ccccc3)C2)cc1 (stereo not given) | 6.25 µg/mL (≈ 15.8 µM) | 12.5 µg/mL (≈ 31.6 µM) | 12.5 µg/mL (≈ 31.6 µM) | 12.5 µg/mL (≈ 31.6 µM) |  |  |
| O=C1CSC(N2N=C(c3ccc(Br)cc3)CC2c2cccs2)=N1 (stereo not given) | 6.25 µg/mL (≈ 15.4 µM) | 6.25 µg/mL (≈ 15.4 µM) | 12.5 µg/mL (≈ 30.8 µM) | 12.5 µg/mL (≈ 30.8 µM) | 27.1 µM | > 10 mg/mL |
| COc1ccc(-c2csc(N3N=C(c4ccc(Br)cc4)CC3c3cccs3)n2)cc1 (stereo not given) | 6.25 µg/mL (≈ 12.6 µM) | 12.5 µg/mL (≈ 25.2 µM) | 12.5 µg/mL (≈ 25.2 µM) | 12.5 µg/mL (≈ 25.2 µM) |  |  |
| Cc1ccc(C2=NN(c3nc(-c4ccccc4)cs3)C(c3cccs3)C2)cc1 (stereo not given) | 3.13 µg/mL (≈ 7.79 µM) | 1.56 µg/mL (≈ 3.88 µM) | 1.56 µg/mL (≈ 3.88 µM) | 3.13 µg/mL (≈ 7.79 µM) | 10.9 µM | > 10 mg/mL |
| Cc1ccc(C2=NN(C3=NC(=O)CS3)C(c3ccccc3)C2)cc1 (stereo not given) | 12.5 µg/mL (≈ 37.3 µM) | 12.5 µg/mL (≈ 37.3 µM) | 6.25 µg/mL (≈ 18.6 µM) | 12.5 µg/mL (≈ 37.3 µM) |  |  |
| Cc1ccc(C2=NN(C3=NC(=O)CS3)C(c3ccco3)C2)cc1 (stereo not given) | 3.13 µg/mL (≈ 9.62 µM) | 6.25 µg/mL (≈ 19.2 µM) | 6.25 µg/mL (≈ 19.2 µM) | 3.13 µg/mL (≈ 9.62 µM) | 18.4 µM | > 10 mg/mL |
| COc1ccc(-c2csc(N3N=C(c4ccc(Br)cc4)CC3c3ccco3)n2)cc1 (stereo not given) | 6.25 µg/mL (≈ 13 µM) | 6.25 µg/mL (≈ 13 µM) | 12.5 µg/mL (≈ 26 µM) | 6.25 µg/mL (≈ 13 µM) | 19.7 µM | > 10 mg/mL |
| Brc1ccc(C2=NN(c3nc(-c4ccccc4)cs3)C(c3cccs3)C2)cc1 (stereo not given) | 6.25 µg/mL (≈ 13.4 µM) | 12.5 µg/mL (≈ 26.8 µM) | 12.5 µg/mL (≈ 26.8 µM) | 6.25 µg/mL (≈ 13.4 µM) | 23.3 µM | > 10 mg/mL |
| O=C1CSC(N2N=C(c3ccc(Cl)c(Cl)c3)CC2c2ccco2)=N1 (stereo not given) | 12.5 µg/mL (≈ 32.9 µM) | 12.5 µg/mL (≈ 32.9 µM) | 6.25 µg/mL (≈ 16.4 µM) | 12.5 µg/mL (≈ 32.9 µM) |  |  |

From ChEMBL document CHEMBL2046396, “Discovery and modification of sulfur-containing heterocyclic pyrazoline derivatives as potential novel class of β-ketoacyl-acyl carrier protein synthase III (FabH) inhibitors” (Bioorg Med Chem Lett, 2012)
